Measurements reported in patent US8741803B2, “Pesticidal composition and method for controlling pest” (Kumiai Chemical Industry Co., Ltd., priority 2007, dated 2014).

Tests used:
cotton aphid = assay: Test Example 3: insecticidal test on cotton aphid (compound 6, pyridalyl and their mixture; root zone irrigation of cucumber seedlings, 3 days); assay type: in vivo, Aphis qossypii; details: Pyridalyl alone, 100.0 ppm, 25° C.
Description: (§1) [formula] wherein X, Y and E are the following values.
(§2) When the practical miticidal value of the insecticide exceeds E (predictive value), a synergistic effect is obtained.
Each of the compound 6, pyridalyl, and a mixture of the compound 6 and pyridalyl was formulated into a wettable powder in accordance with Formulation Example 2. The respective formulations were diluted with water to an active ingredient concentration as identified in Table 17, and to the respective solutions, a spreader (KUMITEN manufactured by Kumiai Chemical Industry Co., Ltd.) was added at a concentration of 0.05% of the entire amount. The root zone of cucumber seedlings which had been inoculated with larvae of cotton aphid were irrigated with 5 mL of each of the solutions. The treated seedlings were placed in a thermostatic chamber at 25° C. for 3 days, and the survivors were counted for calculation of the insecticidal degree by Equation 3. The test was carried out by two series system. The predictive value in the Table was calculated based on the Colby formula of Equation 1.

two-spotted spider mites [1] = assay: Test Example 2: miticidal test on two-spotted spider mites (compound 6, tebufenozide and their mixture; soybean seedling dipping, 13 days); assay type: in vivo, Tetranychus urticae; details: Tebufenozide alone, 100.0 ppm, 25° C.
Source text: as §1
(§3) X: The miticidal value of the component A at a predetermined concentration.
(§4) Y: The miticidal value of the component B at a predetermined concentration.
E: Predictive value (theoretical expected value) of the component A and the component B in combination at the respective predetermined concentrations.
as §2
(§5) Each of the compound 6, tebufenozide, and a mixture of the compound 6 and tebufenozide was formulated into a wettable powder in accordance with Formulation Example 2. The respective formulations were diluted with water to an active ingredient concentration as identified in Table 16, and to the respective solutions, a spreader (KUMITEN manufactured by Kumiai Chemical Industry Co., Ltd.) was added at a concentration of 0.05% of the entire amount. Soybean seedlings which had been inoculated with imago two-spotted spider mites were dipped in each of the resulting solutions and dried in air. The seedlings were placed in a thermostatic chamber at 25° C. for 13 days, and the mite survivors were counted for calculation of the miticidal value by using Equation 2. The test was carried out by one series system. The theoretical value in the Table was calculated based on the Colby formula of Equation 1.

two-spotted spider mites [2] = assay: Test Example 1: miticidal test on two-spotted spider mites (compound 6, flubendiamide and their mixture; soybean seedling dipping, 13 days); assay type: in vivo, Tetranychus urticae; details: Flubendiamide alone, 50.0 ppm, 25° C.
Description: as §5, with “compound 6, flubendiamide, and a” for “compound 6, tebufenozide, and a”, “6 and flubendiamide was formulated” for “6 and tebufenozide was formulated”, “in Table 15, and to” for “in Table 16, and to”, “system. The predictive value in” for “system. The theoretical value in”, “Colby formula (S. R. Colby (Weeds 15 (1967), 20-22) of Equation” for “Colby formula of Equation”
as §1, §3, §4
E: Predictive value (theoretical expected value) of the component A and the component B in combination at the respective predetermined concentrations. […]

## FC(F)(F)c1ccc(OCCCOc2c(Cl)cc(OCC=C(Cl)Cl)cc2Cl)nc1 [pyridalyl]
Cotton aphid
  Insecticidal degree: 10

## CCc1ccc(C(=O)NN(C(=O)c2cc(C)cc(C)c2)C(C)(C)C)cc1 [tebufenozide]
two-spotted spider mites [1]
  Miticidal value: 3

## Cc1cc(C(F)(C(F)(F)F)C(F)(F)F)ccc1NC(=O)c1cccc(I)c1C(=O)NC(C)(C)CS(C)(=O)=O [flubendiamide]
two-spotted spider mites [2]
  Miticidal value: 13
